Assays:
[1] = molecular target: T1, MRGPRX2 (Homo sapiens, UniProt Q96LB1); test: Ca2+ mobilization assay, LN229 cells overexpressing MRGPRX2; format: cell-based; design: expressed in transfected cells; host or cells: LN229 human glioblastoma cells; plasmid pLXSN-MRGPRX2 (Addgene #213960); settings: for Ki: versus CST-14 (EC80 800 nM, EC50 452 nM), Cheng-Prusoff, read-out: Ca2+ assay Ki ± SEM
T1 sequence (Q96LB1 1-330): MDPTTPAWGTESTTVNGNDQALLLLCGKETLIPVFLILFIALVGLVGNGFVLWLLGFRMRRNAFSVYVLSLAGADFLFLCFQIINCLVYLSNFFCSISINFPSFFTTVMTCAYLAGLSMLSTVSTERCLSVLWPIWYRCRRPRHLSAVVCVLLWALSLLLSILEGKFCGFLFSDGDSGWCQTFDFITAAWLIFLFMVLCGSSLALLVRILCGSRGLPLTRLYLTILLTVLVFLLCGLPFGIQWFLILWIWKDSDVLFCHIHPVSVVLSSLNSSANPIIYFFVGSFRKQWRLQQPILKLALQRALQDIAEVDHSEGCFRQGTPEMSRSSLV

[2] = system: LAD2 cells; test: MTT assay, LAD2 cells; format: cell-based, human; settings: 24 h; concentrations up to 6-fold higher than IC50 (3, 10, 30 nM)
Method: Fig. 6 PSB-172656 inhibits MRGPRX2-mediated mast cell degranulation. a LAD2 cells were incubated with buffer (control) or various concentrations of MRGPRX2 antagonist PSB-172656, subsequently exposed to substance P (SP, 0.3 µM), and β-hexosaminidase release was measured. […] Data are expressed as means ± SEM of 3 biological replicates. Statistical significance was determined by one-way ANOVA (Tukey’s multiple comparisons), compared to the effect of SP in the absence of PSB-172656 (P-value*** < 0.001). b Potential cytotoxicity of PSB-172656 was determined in 3-[4,5-dimethylthiazol-2-yl]-2,5-diphenyl tetrazolium bromide (MTT) assays performed on LAD2 cells. Cells were treated with different concentrations of PSB-172656 for 24 h at 37 °C, and the optic density value was determined at 570 nm (the viability of untreated cells corresponds to 100% cell viability). […] Mean fluorescence intensity (MFI) levels of e CD107a and f CD63 are depicted. […] Degranulation is characterized by the release of β-hexosaminidase, expressed as a percentage of the total content. h Human skin MCs were incubated with different concentrations of PSB-172656 for 30 min followed by stimulation with CST-14 (1 µM). Statistical significance was calculated by one-way ANOVA (Tukey’s multiple comparisons), compared to agonist without PSB-172656 (P-value* < 0.05, […], and P-value**** < 0.001) […]

Row | SMILES | agonistic activity in Ca2+ assays [1] | Ki [1] | toxicity in LAD2 cells (MTT) [2] | fold higher potency compared to the 8-monofluorinated derivative (30) [1] | fold increase in potency compared to 10 [1] | fold increase in potency compared to hit compound 1 [1] | MRGPRX2 antagonistic potency in Ca2+ assay, in words ([1]; versus CST-14)
1 | CCCc1c(C)[nH]c2nc3ccccc3n2c1=O [Compound 1, 2-methyl-3-propylbenzo[4,5]imidazo[1,2-a]pyrimidin-4(1H)-one] | did not show any agonistic activity | 246 ± 125 nM |  |  |  |  | 
2 | CCc1c(C(C)C)[nH]c2nc3cc(F)c(F)cc3n2c1=O [Compound 24, 3-ethyl-7,8-difluoro-2-isopropylbenzo[4,5]imidazo [1,2-a] pyrimidin-4(1H)-one] |  | 0.142 nM | did not exhibit toxicity | about 4 fold | 7 fold | 1870 fold | subnanomolar potencies
